Assay results reported in ChEMBL document CHEMBL1909046, “DrugMatrix in vitro pharmacology data”.
pIC50, pKi: −log10 of the molar value.

Experiments:
Calcitonin receptor = biological target: T1, Calcitonin receptor (Homo sapiens, UniProt P30988); format: cell membranes, Membrane; details: t47d; note: in other assays of this panel Not Active means under 50% inhibition at 10 µM
T1 sequence (P30988 whole entry): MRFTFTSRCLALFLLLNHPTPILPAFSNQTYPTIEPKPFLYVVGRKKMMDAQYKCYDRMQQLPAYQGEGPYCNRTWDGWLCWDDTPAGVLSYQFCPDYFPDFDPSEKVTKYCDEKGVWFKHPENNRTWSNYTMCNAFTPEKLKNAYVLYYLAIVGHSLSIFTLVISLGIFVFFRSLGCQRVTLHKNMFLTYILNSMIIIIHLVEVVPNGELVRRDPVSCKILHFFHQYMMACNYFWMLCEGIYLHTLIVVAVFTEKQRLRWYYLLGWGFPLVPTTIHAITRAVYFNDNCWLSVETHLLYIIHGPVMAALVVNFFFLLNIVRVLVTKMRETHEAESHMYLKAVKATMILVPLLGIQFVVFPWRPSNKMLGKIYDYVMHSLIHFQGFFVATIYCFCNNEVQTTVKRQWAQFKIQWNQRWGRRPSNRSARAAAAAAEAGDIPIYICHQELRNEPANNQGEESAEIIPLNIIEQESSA

[1] = DRUGMATRIX: Glutamate, Kainate radioligand binding (ligand: [3H] Kainic acid); format: cell membranes, Rattus norvegicus, Wistar, Brain, Membrane; details: Not Active = under 50% inhibition at 10 µM
[2] = biological target: T2, 3-hydroxy-3-methylglutaryl-coenzyme A reductase (Homo sapiens, UniProt P04035); design: species or system Escherichia coli;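 note: enzyme inhibition assay of HMG-CoA reductase using radiolabeled [14C]HMG-CoA as substrate; in other assays of this panel Not Active means under 50% inhibition at 10 µM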
T2 sequence (P04035 whole entry): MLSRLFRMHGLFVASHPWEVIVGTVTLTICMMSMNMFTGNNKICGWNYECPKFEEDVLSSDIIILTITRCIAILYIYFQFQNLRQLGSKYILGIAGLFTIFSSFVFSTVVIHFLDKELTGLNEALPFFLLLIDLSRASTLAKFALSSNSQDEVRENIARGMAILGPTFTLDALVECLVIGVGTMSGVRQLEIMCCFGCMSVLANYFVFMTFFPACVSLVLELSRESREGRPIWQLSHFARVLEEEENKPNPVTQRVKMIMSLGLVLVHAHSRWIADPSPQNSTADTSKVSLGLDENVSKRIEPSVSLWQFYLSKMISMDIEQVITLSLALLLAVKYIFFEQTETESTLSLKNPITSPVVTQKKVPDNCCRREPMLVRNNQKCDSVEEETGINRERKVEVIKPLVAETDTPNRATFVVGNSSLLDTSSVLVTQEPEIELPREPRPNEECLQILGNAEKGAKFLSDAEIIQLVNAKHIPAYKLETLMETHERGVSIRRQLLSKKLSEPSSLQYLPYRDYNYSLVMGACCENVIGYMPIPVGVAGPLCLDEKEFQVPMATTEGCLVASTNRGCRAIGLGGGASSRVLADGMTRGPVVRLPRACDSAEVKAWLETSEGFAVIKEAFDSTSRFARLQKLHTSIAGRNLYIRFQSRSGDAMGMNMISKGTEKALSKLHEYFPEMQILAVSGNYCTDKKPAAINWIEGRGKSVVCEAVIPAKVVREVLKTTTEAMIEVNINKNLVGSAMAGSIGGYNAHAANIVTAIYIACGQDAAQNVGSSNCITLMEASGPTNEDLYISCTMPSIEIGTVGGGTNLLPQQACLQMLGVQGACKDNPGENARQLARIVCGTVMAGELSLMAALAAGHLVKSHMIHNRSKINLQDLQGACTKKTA

Melanocortin receptor 4 = Melanocortin receptor 4 (Homo sapiens, UniProt P32245); format: cell membranes, HEK293, Membrane; details: hek293; note: in other assays of this panel Not Active means under 50% inhibition at 10 µM
[3] = biological target: T3, Nitric oxide synthase, inducible (Mus musculus, UniProt P29477); design: species or system Escherichia coli;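 note: inhibition of iNOS enzyme activity measured with L-arginine as substrate; in other assays of this panel Not Active means under 50% inhibition at 10 µM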
T3 sequence (P29477 whole entry): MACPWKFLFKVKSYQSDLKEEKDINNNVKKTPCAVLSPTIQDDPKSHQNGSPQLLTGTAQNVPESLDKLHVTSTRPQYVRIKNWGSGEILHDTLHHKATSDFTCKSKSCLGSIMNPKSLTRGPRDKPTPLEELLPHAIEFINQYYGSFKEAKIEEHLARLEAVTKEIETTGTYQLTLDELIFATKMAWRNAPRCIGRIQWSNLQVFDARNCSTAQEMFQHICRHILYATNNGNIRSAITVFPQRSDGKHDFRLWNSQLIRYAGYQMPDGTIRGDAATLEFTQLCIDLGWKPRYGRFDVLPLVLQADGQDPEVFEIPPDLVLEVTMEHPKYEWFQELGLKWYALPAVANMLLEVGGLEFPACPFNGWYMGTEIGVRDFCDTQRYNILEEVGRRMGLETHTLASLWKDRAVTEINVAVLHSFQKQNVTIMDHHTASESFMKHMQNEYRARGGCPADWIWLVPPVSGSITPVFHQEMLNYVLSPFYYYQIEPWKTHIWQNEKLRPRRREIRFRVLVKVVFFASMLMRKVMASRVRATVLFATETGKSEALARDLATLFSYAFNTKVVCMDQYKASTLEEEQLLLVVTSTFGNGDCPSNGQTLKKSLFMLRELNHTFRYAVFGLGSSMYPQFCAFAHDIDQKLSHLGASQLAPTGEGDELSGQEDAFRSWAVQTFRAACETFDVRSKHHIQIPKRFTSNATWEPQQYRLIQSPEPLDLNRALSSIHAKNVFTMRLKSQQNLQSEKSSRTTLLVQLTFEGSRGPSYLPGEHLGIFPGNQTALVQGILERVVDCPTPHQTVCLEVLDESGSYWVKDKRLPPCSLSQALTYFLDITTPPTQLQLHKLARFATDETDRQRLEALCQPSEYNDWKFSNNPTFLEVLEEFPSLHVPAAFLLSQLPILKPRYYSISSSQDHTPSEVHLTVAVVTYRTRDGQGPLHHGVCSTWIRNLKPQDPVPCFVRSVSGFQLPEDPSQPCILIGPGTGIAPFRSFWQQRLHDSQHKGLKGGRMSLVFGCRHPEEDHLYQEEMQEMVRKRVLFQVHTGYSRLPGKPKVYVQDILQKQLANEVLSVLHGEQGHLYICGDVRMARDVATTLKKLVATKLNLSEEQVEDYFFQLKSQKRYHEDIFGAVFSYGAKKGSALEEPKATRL

[4] = biological target: Epidermal growth factor receptor (Homo sapiens, UniProt P00533); experiment: DRUGMATRIX: Protein Tyrosine Kinase, EGF Receptor enzyme inhibition (substrate: Poly(Glu:Tyr)); format: cell-based, Insect cells; details: Not Active = under 50% inhibition at 10 µM; for IC50 / Ki: insect cells
Cytochrome P450 2C9 = Cytochrome P450 2C9 (Homo sapiens, UniProt P11712); details: bti-tn-5b1-4; note: in other assays of this panel Not Active means under 50% inhibition at 10 µM
Cytochrome P450 3A4 = Cytochrome P450 3A4 (Homo sapiens, UniProt P08684); details: bti-tn-5b1-4; note: in other assays of this panel Not Active means under 50% inhibition at 10 µM
Cytochrome P450 3A4, sequence (P08684 whole entry): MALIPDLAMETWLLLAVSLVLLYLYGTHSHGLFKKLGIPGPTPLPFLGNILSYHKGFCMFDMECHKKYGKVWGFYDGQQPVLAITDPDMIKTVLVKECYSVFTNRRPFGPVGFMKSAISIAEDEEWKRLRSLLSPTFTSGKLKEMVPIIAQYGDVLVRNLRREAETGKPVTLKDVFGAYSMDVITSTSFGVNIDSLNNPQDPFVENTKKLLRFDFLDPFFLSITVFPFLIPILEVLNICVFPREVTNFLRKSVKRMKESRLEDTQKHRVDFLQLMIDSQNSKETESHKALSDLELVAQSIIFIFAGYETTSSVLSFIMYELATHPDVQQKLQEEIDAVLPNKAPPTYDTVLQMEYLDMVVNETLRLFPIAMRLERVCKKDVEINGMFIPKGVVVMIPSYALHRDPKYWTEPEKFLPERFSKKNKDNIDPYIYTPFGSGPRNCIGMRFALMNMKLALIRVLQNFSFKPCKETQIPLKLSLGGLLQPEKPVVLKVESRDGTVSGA

Cytochrome P450 2C9, sequence (P11712 whole entry): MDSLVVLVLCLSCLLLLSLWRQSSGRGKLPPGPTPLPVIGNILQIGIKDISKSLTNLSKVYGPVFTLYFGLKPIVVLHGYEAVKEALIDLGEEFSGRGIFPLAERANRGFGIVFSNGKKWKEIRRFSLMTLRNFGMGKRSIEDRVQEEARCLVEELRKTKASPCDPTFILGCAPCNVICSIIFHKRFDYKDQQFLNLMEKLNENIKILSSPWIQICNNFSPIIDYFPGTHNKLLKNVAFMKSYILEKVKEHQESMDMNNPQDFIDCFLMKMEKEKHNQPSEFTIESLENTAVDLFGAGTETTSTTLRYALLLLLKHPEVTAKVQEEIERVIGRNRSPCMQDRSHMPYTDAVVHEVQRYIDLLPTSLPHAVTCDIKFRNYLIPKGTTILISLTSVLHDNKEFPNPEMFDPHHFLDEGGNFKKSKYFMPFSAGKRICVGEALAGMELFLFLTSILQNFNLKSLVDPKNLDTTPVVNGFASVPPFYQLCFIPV
Melanocortin receptor 4, sequence (P32245 whole entry): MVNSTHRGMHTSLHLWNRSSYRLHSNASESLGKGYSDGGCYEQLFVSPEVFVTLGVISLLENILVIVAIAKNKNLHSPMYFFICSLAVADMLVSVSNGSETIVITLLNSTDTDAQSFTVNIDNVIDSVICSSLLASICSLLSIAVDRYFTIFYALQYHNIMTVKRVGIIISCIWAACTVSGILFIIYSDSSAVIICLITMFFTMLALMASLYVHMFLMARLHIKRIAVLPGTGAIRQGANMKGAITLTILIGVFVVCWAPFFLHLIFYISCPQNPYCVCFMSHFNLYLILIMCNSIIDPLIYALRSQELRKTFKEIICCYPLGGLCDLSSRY

| Compound | IC50 (Calcitonin receptor) | IC50 [1] | Ki [1] | IC50 [2] | IC50 (Melanocortin receptor 4) | IC50 [3] | pIC50 ([4]; read-out: IC50) | IC50 (Cytochrome P450 2C9) | Ki (Cytochrome P450 2C9) | IC50 (Cytochrome P450 3A4) | Ki (Cytochrome P450 3A4) | Ki (Calcitonin receptor) | Ki [2] | Ki (Melanocortin receptor 4) | Ki [3] | IC50 [4] | Ki [4] | pIC50 (Melanocortin receptor 4; read-out: IC50) | pKi (Melanocortin receptor 4; read-out: Ki) |
| --- | --- | --- | --- | --- | --- | --- | --- | --- | --- | --- | --- | --- | --- | --- | --- | --- | --- | --- | --- |
| Oc1cccc(O)c1O [PYROGALLOL] | Not Active | Not Active | Not Active | Not Active | Not Active | Not Active | 5.91 | Not Active | Not Active | Not Active | Not Active |  |  |  |  |  |  |  |  |
| AURANOFIN | Not Active | Not Active | Not Active | Not Active | Not Active | Not Active |  | Not Active | Not Active | Not Active | Not Active | Not Active | Not Active | Not Active | Not Active | Not Active | Not Active |  |  |
| GADOPENTETATE DIMEGLUMINE | Not Active | Not Active | Not Active | Not Active | Not Active | Not Active |  | Not Active | Not Active | Not Active | Not Active | Not Active | Not Active | Not Active | Not Active | Not Active | Not Active |  |  |
| GENTAMICIN | Not Active | Not Active | Not Active | Not Active | Not Active | Not Active |  | Not Active | Not Active | Not Active | Not Active | Not Active | Not Active | Not Active | Not Active | Not Active | Not Active |  |  |
| GRAMICIDIN | Not Active | Not Active | Not Active | Not Active |  | Not Active |  | Not Active | Not Active | Not Active | Not Active | Not Active | Not Active |  | Not Active | Not Active | Not Active | 5.48 | 5.50 |
| NYSTATIN | Not Active | Not Active | Not Active | Not Active | Not Active | Not Active |  | Not Active | Not Active | Not Active | Not Active | Not Active | Not Active | Not Active | Not Active | Not Active | Not Active |  |  |
